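Each compound was tested at five concentrations against cells in 96-well plates for 48 hours. TGI: total growth inhibition.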
The compounds below were run on SNB-75 CNS (assay: NCI-60 cell line screen, 48 h).

SMILES | TGI
CC(C)NC(=O)OCc1c(COC(=O)NC(C)C)c(-c2ccc[n+](COC(=O)CC(C)(C)C)c2)n2c1CCC2 | > 100 µM
C=C(C)[C@@H](C(=O)OC)N1C(=O)c2ccccc2C1=O | > 100 µM
CO/N=C(\C(=O)Nc1cncs1)c1csc(NC(c2ccccc2)(c2ccccc2)c2ccccc2)n1 | > 10 µM
CCCN(CCCCC(NC(C)=O)C(=O)NCc1ccccc1)C(=O)N(CCCl)N=O (stereo not given) | 90.8 µM
O=C(CNc1ccc(Cl)cc1)Nn1c(-c2ccccc2)nc2ccccc2c1=O | 24.1 µM
COc1cc(C2c3cc4c(cc3[C@H](OCCN(C)C)[C@@H]3COC(=O)C23)OCO4)cc(OC)c1O (stereo not given in full) | 3.79 µM
CCCCn1c(C)c(C(=O)OCC)c2cc(OCc3ccc(C(=O)Nn4c(C)ccc4C)cc3)c(Br)cc21 | > 100 µM
O=C(CC(=O)N(C(=O)c1ccccc1)c1ccc(Cl)cc1)N/N=C\c1cc(N=Nc2ccccc2Cl)ccc1O | 36.6 µM
Cc1cccc2c(N)c3cccc(C(=O)NCCCNCCN)c3nc12 | 8.1 µM
CN1CCC(OC(=O)Oc2ccccc2)(c2ccccc2)CC1 | 63.3 µM
CCOC(=O)/C(O)=C(/C=NC(=S)c1ccncc1)C(=O)OCC | > 100 µM

What follows are compounds tested on RPMI-8226 leukemia (assay: NCI-60 cell line screen, 48 h).

SMILES | TGI
Cc1nc(N)c(N2CCNCC2)c(=O)[nH]1 | > 100 µM
Brc1ccc2c(-c3nc(-c4c[nH]c5ccc(Br)cc45)cs3)c[nH]c2c1 | 14 µM
O=C1NNC(=O)C2C3c4ccccc4C(c4ccccc43)C12 (stereo not given) | > 100 µM
O=c1[nH]nc(-c2cccc(Br)c2)[nH]1 | > 100 µM
CCOC(=O)C(Cl)(NC(=O)c1ccc(F)cc1)C(F)(F)F (stereo not given) | > 100 µM
COc1ccccc1N1C(=O)/C(=C\c2cccc(Oc3ccccc3)c2)SC1c1ccccc1 (stereo not given) | > 100 µM
Cc1ccc(S(=O)(=O)OC2C3OC(C)(C)OC3OC2C(c2cc(O)c3c(c2O)C(=O)c2ccccc2C3=O)c2cc(O)c3c(c2O)C(=O)c2ccccc2C3=O)cc1 (stereo not given) | > 10 µM
N#Cc1nc(COCCOCc2ccccc2)oc1N | > 100 µM
CC1CN=C(Nc2ccc(S(N)(=O)=O)cc2)S1 (stereo not given) | > 100 µM
COC1(OC)C2(Cl)CCC1(Cl)C(OC(C)=O)C2 (stereo not given) | > 100 µM
O=P(O)(O)CN1CCN(CP(=O)(O)O)CCN(CP(=O)(O)O)CCN(CP(=O)(O)O)CC1 | 93.5 µM
CC(C)NC(=O)OCc1c(COC(=O)NC(C)C)c(-c2ccc[n+](COC(=O)CC(C)(C)C)c2)n2c1CCC2 | > 100 µM
C=C(C)[C@@H](C(=O)OC)N1C(=O)c2ccccc2C1=O | > 100 µM
CO/N=C(\C(=O)Nc1cncs1)c1csc(NC(c2ccccc2)(c2ccccc2)c2ccccc2)n1 | > 10 µM
CCCN(CCCCC(NC(C)=O)C(=O)NCc1ccccc1)C(=O)N(CCCl)N=O (stereo not given) | > 100 µM
O=C(CNc1ccc(Cl)cc1)Nn1c(-c2ccccc2)nc2ccccc2c1=O | 45.2 µM
COc1cc(C2c3cc4c(cc3[C@H](OCCN(C)C)[C@@H]3COC(=O)C23)OCO4)cc(OC)c1O (stereo not given in full) | > 100 µM
CCCCn1c(C)c(C(=O)OCC)c2cc(OCc3ccc(C(=O)Nn4c(C)ccc4C)cc3)c(Br)cc21 | > 100 µM
O=C(CC(=O)N(C(=O)c1ccccc1)c1ccc(Cl)cc1)N/N=C\c1cc(N=Nc2ccccc2Cl)ccc1O | > 100 µM
Cc1cccc2c(N)c3cccc(C(=O)NCCCNCCN)c3nc12 | 37.3 µM
CN1CCC(OC(=O)Oc2ccccc2)(c2ccccc2)CC1 | 35.7 µM
CCOC(=O)/C(O)=C(/C=NC(=S)c1ccncc1)C(=O)OCC | > 100 µM

These compounds were tested on HCC-2998 colon (assay: NCI-60 cell line screen, 48 h).

SMILES | TGI
Cc1nc(N)c(N2CCNCC2)c(=O)[nH]1 | > 100 µM
Brc1ccc2c(-c3nc(-c4c[nH]c5ccc(Br)cc45)cs3)c[nH]c2c1 | 5.92 µM
O=C1NNC(=O)C2C3c4ccccc4C(c4ccccc43)C12 (stereo not given) | > 100 µM
O=c1[nH]nc(-c2cccc(Br)c2)[nH]1 | > 100 µM
CCOC(=O)C(Cl)(NC(=O)c1ccc(F)cc1)C(F)(F)F (stereo not given) | > 100 µM
COc1ccccc1N1C(=O)/C(=C\c2cccc(Oc3ccccc3)c2)SC1c1ccccc1 (stereo not given) | > 100 µM
Cc1ccc(S(=O)(=O)OC2C3OC(C)(C)OC3OC2C(c2cc(O)c3c(c2O)C(=O)c2ccccc2C3=O)c2cc(O)c3c(c2O)C(=O)c2ccccc2C3=O)cc1 (stereo not given) | > 10 µM
N#Cc1nc(COCCOCc2ccccc2)oc1N | > 100 µM
CC1CN=C(Nc2ccc(S(N)(=O)=O)cc2)S1 (stereo not given) | > 100 µM
COC1(OC)C2(Cl)CCC1(Cl)C(OC(C)=O)C2 (stereo not given) | > 100 µM
O=P(O)(O)CN1CCN(CP(=O)(O)O)CCN(CP(=O)(O)O)CCN(CP(=O)(O)O)CC1 | > 100 µM
CC(C)NC(=O)OCc1c(COC(=O)NC(C)C)c(-c2ccc[n+](COC(=O)CC(C)(C)C)c2)n2c1CCC2 | > 100 µM
C=C(C)[C@@H](C(=O)OC)N1C(=O)c2ccccc2C1=O | > 100 µM
CO/N=C(\C(=O)Nc1cncs1)c1csc(NC(c2ccccc2)(c2ccccc2)c2ccccc2)n1 | > 10 µM
CCCN(CCCCC(NC(C)=O)C(=O)NCc1ccccc1)C(=O)N(CCCl)N=O (stereo not given) | > 100 µM
O=C(CNc1ccc(Cl)cc1)Nn1c(-c2ccccc2)nc2ccccc2c1=O | 23.5 µM
COc1cc(C2c3cc4c(cc3[C@H](OCCN(C)C)[C@@H]3COC(=O)C23)OCO4)cc(OC)c1O (stereo not given in full) | 2.55 µM

— PubChem BioAssay (NCI)
